Two compounds from PMC6407576, “Synthesis and evaluation of anticancer, antiphospholipases, antiproteases, and antimetabolic syndrome activities of some 3H-quinazolin-4-one derivatives” (Journal of Enzyme Inhibition and Medicinal Chemistry, 2019) can be followed below.

Each structure is given as a SMILES string.

Sequence of xanthine oxidase (P47989 whole entry, species assumed): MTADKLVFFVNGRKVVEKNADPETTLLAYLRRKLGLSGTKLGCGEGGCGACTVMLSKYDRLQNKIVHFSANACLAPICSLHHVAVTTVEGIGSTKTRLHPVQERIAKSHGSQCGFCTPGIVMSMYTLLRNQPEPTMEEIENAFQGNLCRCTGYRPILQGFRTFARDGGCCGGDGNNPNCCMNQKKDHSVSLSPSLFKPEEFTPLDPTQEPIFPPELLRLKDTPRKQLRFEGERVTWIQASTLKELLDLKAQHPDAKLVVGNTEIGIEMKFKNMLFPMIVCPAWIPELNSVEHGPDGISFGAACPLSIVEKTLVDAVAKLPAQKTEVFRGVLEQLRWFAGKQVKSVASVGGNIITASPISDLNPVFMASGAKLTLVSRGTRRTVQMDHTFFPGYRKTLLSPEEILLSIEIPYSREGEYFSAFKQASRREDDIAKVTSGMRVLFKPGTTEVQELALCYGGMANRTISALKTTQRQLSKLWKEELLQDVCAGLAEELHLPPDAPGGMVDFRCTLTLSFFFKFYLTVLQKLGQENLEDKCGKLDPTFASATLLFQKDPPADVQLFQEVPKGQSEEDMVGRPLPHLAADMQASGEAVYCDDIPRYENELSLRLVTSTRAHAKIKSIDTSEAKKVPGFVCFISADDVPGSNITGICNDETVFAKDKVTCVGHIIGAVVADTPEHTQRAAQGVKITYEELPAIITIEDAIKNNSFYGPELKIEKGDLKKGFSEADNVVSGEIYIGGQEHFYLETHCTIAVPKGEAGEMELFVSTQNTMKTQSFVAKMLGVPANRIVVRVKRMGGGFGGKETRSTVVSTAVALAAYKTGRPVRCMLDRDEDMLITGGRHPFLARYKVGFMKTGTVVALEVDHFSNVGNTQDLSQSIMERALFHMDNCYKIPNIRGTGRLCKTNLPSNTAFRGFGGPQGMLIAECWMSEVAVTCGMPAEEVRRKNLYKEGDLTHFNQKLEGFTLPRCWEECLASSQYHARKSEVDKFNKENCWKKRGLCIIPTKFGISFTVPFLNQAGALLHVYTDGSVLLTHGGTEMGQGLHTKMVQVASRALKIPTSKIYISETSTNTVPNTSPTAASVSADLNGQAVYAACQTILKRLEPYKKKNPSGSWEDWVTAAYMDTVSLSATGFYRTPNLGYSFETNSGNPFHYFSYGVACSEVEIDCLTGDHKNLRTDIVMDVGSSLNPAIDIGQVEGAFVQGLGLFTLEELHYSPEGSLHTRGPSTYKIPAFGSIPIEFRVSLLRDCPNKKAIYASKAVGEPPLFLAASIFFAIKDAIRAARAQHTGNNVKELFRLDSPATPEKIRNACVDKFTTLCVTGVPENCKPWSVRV

For the first data set, the target named is Apis mellifera bee venom (AmPLA2) (Apis mellifera, UniProt P00630). The data set can be described thus: biochemical.
Sequence of Apis mellifera bee venom (AmPLA2) (P00630 34-167 limits assumed): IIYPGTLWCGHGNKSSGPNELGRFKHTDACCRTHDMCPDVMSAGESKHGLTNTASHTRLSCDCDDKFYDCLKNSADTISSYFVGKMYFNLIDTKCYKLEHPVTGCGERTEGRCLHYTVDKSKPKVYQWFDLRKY
Settings: not given
Broadly, the IC50 is the concentration that inhibits the measured activity by half. Compound `COc1cc(-n2c(C)nc3ccc(Cl)cc3c2=O)cc(OC)c1OC` [Compound 5c, 6 -Chloro-2-methyl-3–(3,4,5-trimethoxy-phenyl)-3H-quinazolin-4-one] showed an IC50 of 12.6 µM.
`Cc1nc2ccc(Br)cc2c(=O)n1/N=C/c1ccc2ccccc2c1` [Compound 8b, (E)-6-Bromo-2-methyl-3-[(naphthalen-2-ylmethylene)-amino]-3H-quinazolin-4-one] showed an IC50 of 18.5 µM.

For the next data set, the target named is Naja mossambica mossambica sPLA2 (NmPLA2). As to the kind of experiment: In vitro antiphospholipase activity. Format: biochemical. The conditions noted are these: 20 min preincubation, lecithin substrate, pH 7.6.
As for `COc1cc(-n2c(C)nc3ccc(Cl)cc3c2=O)cc(OC)c1OC` [Compound 5c, 6 -Chloro-2-methyl-3–(3,4,5-trimethoxy-phenyl)-3H-quinazolin-4-one], the “mean IC50 against NmPLA2” value turned out to be 5.15 ± 0.92 µg/mL.
Same read-out and setting: in the case of `Cc1nc2ccc(Br)cc2c(=O)n1/N=C/c1ccc2ccccc2c1` [Compound 8b, (E)-6-Bromo-2-methyl-3-[(naphthalen-2-ylmethylene)-amino]-3H-quinazolin-4-one] it was 16.25 ± 1.06 µg/mL.

For another data set, the target named is T1, human group V (hG-V) sPLA2 (Homo sapiens, UniProt P39877).
T1 sequence (P39877 21-138): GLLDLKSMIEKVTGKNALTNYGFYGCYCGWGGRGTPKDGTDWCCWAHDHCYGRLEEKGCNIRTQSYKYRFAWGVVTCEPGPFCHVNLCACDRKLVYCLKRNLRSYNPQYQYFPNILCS
As to the kind of experiment: In vitro antiphospholipase activity. Particulars: 20 min preincubation, lecithin substrate, pH 7.6; read-out: mean IC50 against hG-V (converted). The data set is classed as biochemical.
For the compound `COc1cc(-n2c(C)nc3ccc(Cl)cc3c2=O)cc(OC)c1OC` [Compound 5c, 6 -Chloro-2-methyl-3–(3,4,5-trimethoxy-phenyl)-3H-quinazolin-4-one], the IC50 is 38.1 µM.
On the same count and under the same terms, in the case of `Cc1nc2ccc(Br)cc2c(=O)n1/N=C/c1ccc2ccccc2c1` [Compound 8b, (E)-6-Bromo-2-methyl-3-[(naphthalen-2-ylmethylene)-amino]-3H-quinazolin-4-one] it was 54.8 µM.

The next data set has as its target xanthine oxidase (Homo sapiens, UniProt P47989). As to the kind of experiment: In vitro inhibition of xanthine oxidase. The data set is classed as biochemical.
Settings: not given
The compound `COc1cc(-n2c(C)nc3ccc(Cl)cc3c2=O)cc(OC)c1OC` [Compound 5c, 6 -Chloro-2-methyl-3–(3,4,5-trimethoxy-phenyl)-3H-quinazolin-4-one] had an IC50 of 36 µM.
Compound `Cc1nc2ccc(Br)cc2c(=O)n1/N=C/c1ccc2ccccc2c1` [Compound 8b, (E)-6-Bromo-2-methyl-3-[(naphthalen-2-ylmethylene)-amino]-3H-quinazolin-4-one] had an IC50 of 25.5 µM.

Test system in the next data set: not given
Test: not given
Settings: not given
As usually defined, the melting point is the temperature of the solid-liquid transition. Take `COc1cc(-n2c(C)nc3ccc(Cl)cc3c2=O)cc(OC)c1OC` [Compound 5c, 6 -Chloro-2-methyl-3–(3,4,5-trimethoxy-phenyl)-3H-quinazolin-4-one]: the melting point fell in the range of 188 to 190 °C.

The next data set concerns the target thrombin (Homo sapiens, UniProt P00734). As to the kind of experiment: In vitro antiprotease activity. The data set is classed as biochemical. Particulars: 15 min preincubation; read-out: mean IC50 against Thrombin (converted). The method, then:
(§1) The inhibitory effects of 21 3H-quinazolin-4-one derivatives on several available therapeutically important proteases such as cathepsin-B, collagenase, elastase, thrombin, and trypsin were investigated. […] The protease inhibitory activity was expressed as inhibition percentage, which was determined by comparison with a control experiment. The results were expressed as IC50 values that were determined from the standard curve. A protease inhibitor cocktail (Sigma) was used as the positive control.
As to `COc1cc(-n2c(C)nc3ccc(Cl)cc3c2=O)cc(OC)c1OC` [Compound 5c, 6 -Chloro-2-methyl-3–(3,4,5-trimethoxy-phenyl)-3H-quinazolin-4-one], the IC50 is 6.93 µM.
Take `Cc1nc2ccc(Br)cc2c(=O)n1/N=C/c1ccc2ccccc2c1` [Compound 8b, (E)-6-Bromo-2-methyl-3-[(naphthalen-2-ylmethylene)-amino]-3H-quinazolin-4-one]: the IC50 was 42.1 µM.

In a further data set the target is T2, trypsin (Bos taurus, UniProt P00760).
T2 construct: gene PRSS1
T2 sequence (P00760 24-246): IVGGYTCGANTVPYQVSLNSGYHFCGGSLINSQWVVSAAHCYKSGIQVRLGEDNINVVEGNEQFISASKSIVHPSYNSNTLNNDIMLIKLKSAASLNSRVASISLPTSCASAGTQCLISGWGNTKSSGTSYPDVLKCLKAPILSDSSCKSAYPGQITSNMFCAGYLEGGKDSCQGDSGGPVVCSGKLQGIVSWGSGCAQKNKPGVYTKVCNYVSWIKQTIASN
The data set can be described thus: In vitro antiprotease activity. Particulars: 15 min preincubation; read-out: mean IC50 against Trypsin (converted). The data set is classed as biochemical. Here is the method:
as §1
Consider `COc1cc(-n2c(C)nc3ccc(Cl)cc3c2=O)cc(OC)c1OC` [Compound 5c, 6 -Chloro-2-methyl-3–(3,4,5-trimethoxy-phenyl)-3H-quinazolin-4-one], for which the concentration for half-maximal inhibition (IC50) was 6.24 µM.
As for `Cc1nc2ccc(Br)cc2c(=O)n1/N=C/c1ccc2ccccc2c1` [Compound 8b, (E)-6-Bromo-2-methyl-3-[(naphthalen-2-ylmethylene)-amino]-3H-quinazolin-4-one], the IC50 is 65 µM.

The target of the next data set is elastase. The data set can be described thus: In vitro antiprotease activity. Format: biochemical. Particulars: 15 min preincubation. The method, then:
as §1
`COc1cc(-n2c(C)nc3ccc(Cl)cc3c2=O)cc(OC)c1OC` [Compound 5c, 6 -Chloro-2-methyl-3–(3,4,5-trimethoxy-phenyl)-3H-quinazolin-4-one]: the “mean IC50 against Elastase” value came to 1.75 ± 0.05 µg/mL.
For the compound `Cc1nc2ccc(Br)cc2c(=O)n1/N=C/c1ccc2ccccc2c1` [Compound 8b, (E)-6-Bromo-2-methyl-3-[(naphthalen-2-ylmethylene)-amino]-3H-quinazolin-4-one], the “mean IC50 against Elastase” value stood at 21.50 ± 2.12 µg/mL.

A further data set addresses cathepsin-B (Homo sapiens, UniProt P07858). As to the kind of experiment: In vitro antiprotease activity. Format: biochemical. The conditions noted are these: 15 min preincubation; read-out: mean IC50 against Cathepsin-B (converted). Here is the method: as §1
In the case of `COc1cc(-n2c(C)nc3ccc(Cl)cc3c2=O)cc(OC)c1OC` [Compound 5c, 6 -Chloro-2-methyl-3–(3,4,5-trimethoxy-phenyl)-3H-quinazolin-4-one], the IC50 is 34.6 µM.
In the case of `Cc1nc2ccc(Br)cc2c(=O)n1/N=C/c1ccc2ccccc2c1` [Compound 8b, (E)-6-Bromo-2-methyl-3-[(naphthalen-2-ylmethylene)-amino]-3H-quinazolin-4-one], the 50% inhibitory concentration (IC50) was 54.8 µM.

The target of another data set is collagenase. The data set can be described thus: In vitro antiprotease activity. The data set is classed as biochemical. The conditions noted are these: 15 min preincubation. Here is the method: as §1
As to `COc1cc(-n2c(C)nc3ccc(Cl)cc3c2=O)cc(OC)c1OC` [Compound 5c, 6 -Chloro-2-methyl-3–(3,4,5-trimethoxy-phenyl)-3H-quinazolin-4-one], the “mean IC50 against Collagenase” value was determined as 21.50 ± 2.12 µg/mL.
For `Cc1nc2ccc(Br)cc2c(=O)n1/N=C/c1ccc2ccccc2c1` [Compound 8b, (E)-6-Bromo-2-methyl-3-[(naphthalen-2-ylmethylene)-amino]-3H-quinazolin-4-one], the “mean IC50 against Collagenase” value came out at 4.25 ± 1.06 µg/mL.

In the next data set the target is T3, human group IIA (hG-IIA) sPLA2 (Homo sapiens, UniProt P14555).
T3 sequence (P14555 21-144): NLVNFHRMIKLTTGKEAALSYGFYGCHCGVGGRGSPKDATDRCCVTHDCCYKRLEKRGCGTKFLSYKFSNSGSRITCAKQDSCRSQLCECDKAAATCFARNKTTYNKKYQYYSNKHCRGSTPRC
As to the kind of experiment: In vitro antiphospholipase activity. The data set is classed as biochemical.
Settings: not given
Turning to `COc1cc(-n2c(C)nc3ccc(Cl)cc3c2=O)cc(OC)c1OC` [Compound 5c, 6 -Chloro-2-methyl-3–(3,4,5-trimethoxy-phenyl)-3H-quinazolin-4-one], the IC50 is 57.5 µM.
On the same count and under the same terms, in the case of `Cc1nc2ccc(Br)cc2c(=O)n1/N=C/c1ccc2ccccc2c1` [Compound 8b, (E)-6-Bromo-2-methyl-3-[(naphthalen-2-ylmethylene)-amino]-3H-quinazolin-4-one] it was 42.3 µM.

The target of a further data set is T4, human group X (hG-X) sPLA2 (Homo sapiens, UniProt O15496).
T4 sequence (O15496 43-165): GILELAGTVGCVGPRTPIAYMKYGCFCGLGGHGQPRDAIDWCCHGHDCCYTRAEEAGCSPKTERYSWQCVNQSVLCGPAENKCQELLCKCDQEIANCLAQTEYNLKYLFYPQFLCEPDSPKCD
As to the kind of experiment: In vitro antiphospholipase activity. The conditions noted are these: 20 min preincubation, lecithin substrate, pH 7.6; read-out: mean IC50 against hG-X (converted). Format: biochemical.
Turning to `COc1cc(-n2c(C)nc3ccc(Cl)cc3c2=O)cc(OC)c1OC` [Compound 5c, 6 -Chloro-2-methyl-3–(3,4,5-trimethoxy-phenyl)-3H-quinazolin-4-one], the IC50 was 26.3 µM.
Consider `Cc1nc2ccc(Br)cc2c(=O)n1/N=C/c1ccc2ccccc2c1` [Compound 8b, (E)-6-Bromo-2-methyl-3-[(naphthalen-2-ylmethylene)-amino]-3H-quinazolin-4-one], for which the IC50 was 33.1 µM.
